In patent US10975069B2, “Sigma-2 receptor ligand drug conjugates as antitumor compounds, methods of synthesis and uses thereof” (priority 2014, dated 2021):
Like-named read-outs stand apart in the source and are kept apart here.

What was measured:
SYO-1 = test: Viability assay, 24 hours treatment, synovial sarcoma cells; assay type: cell-based
Procedure: (§1) In these experiments, viability assays after 24 hours treatment of human and murine pancreatic cancer cell lines and synovial sarcoma cell lines with SW V-49s or its parent compounds SV119 and Erastin, both singly and in combination, were performed. […] In comparison.
Synovial sarcoma cell lines (FIG. 4F, SYO-1, ME1 deficient) are so sensitive to SW V-49s that it was difficult to measure the minimal drug concentration required to kill 50% of the cancer cells, but the measured IC50 was approx. 1.0 μM.
(§2) AsPC-1 and SYO-1 cells were plated in 96 well plate overnight then treated with similar concentrations of Erastin for 24 hours. Viability assay was performed after 24 hours. […] (p<0.0001), (FIG. 10).

AsPC-1 = test: Viability assay (CELLTITER-GLO), 24 hours treatment; assay type: cell-based, human
Procedure: as §1
(§3) Cytotoxicity of the drugs was evaluated by CELLTITER-GLO®. Luminescent cell viability assay (Promega, Madison, Wis.). Pancreatic cell lines were plated at a density of 2×10^4/well in white 96 well, clear bottom plates for 24 hours prior to treatment. Drugs were dissolved in DMSO and serially diluted in culture medium to achieve the final concentration of DMSO less than 1%. Cells were then treated for 24 hours and 100 μl of the CELLTITER-GLO® reagent was added to each well. The contents of the plates were mixed using an orbital shaker and subsequently incubated for 10 minutes at room temperature. Luminescence signal was measured using a multi-mode microplate reader (BioTek instruments. Winooski, Vt.). Different drug concentrations were assayed in triplicate. To evaluate the efficacy of the drugs, IC50 of the compounds was calculated on a panel of human and mouse derived pancreatic cancer cell lines in vitro. Cells were treated for 24 hours with SW V-49s, SV119, Erastin, and an equimolar mixture of SV119 and Erastin, then CELLTITER-GLO® viability assay was performed.
as §2

caspase 3/7 = test: CASPASE-GLO caspase 3/7 assay in AsPC-1 cells; assay type: cell-based, human; settings: for caspase activity compared to 4 μM SW V-49s: 50 μM, 24 hr., FIG. 5A
Source text: In these experiments, the inventors investigated whether compounds of the present teachings were lethal towards pancreatic cancer cells by triggering an apoptosis cell death pathway, a ferroptosis cell death pathway, or a combination thereof. The inventors thus performed assays for caspase 3/7 as an indicator of apoptotic cell death, and assays for the generation of reactive oxygen species (ROS) as an indicator of ferropoptotic cell death. […] In FIG. 5B, results are shown for Caspase-Glo® (Promega) assays of Aspc-1 cells treated with 8 μM SW V-49s, 8 μM Erastin, 8 μM SV119, or 8 μM of an equimolar mixture of Erastin and SV 119, for 7 hrs.
In these experiments, caspase-3/7.8 and 9 activities were measured In AsPC-1 cells using the corresponding CASPASE-GLO® Assay according to the manufacturer's instructions (Promega, Madison. Wis.). This assay is based on a caspase-specific substrate, which is cleaved to release aminoluciferin, a substrate of luciferase that results in caspase-specific luminescence signals. Cells were seeded at a density of 2×10^4 in white 96-well, clear bottom plates for 24 hours before treatment with 4 μM of compounds. The contents were then mixed using a plate shaker for 30 seconds, thereafter incubated at room temperature for 90 minutes. Luminescence signal was measured using a multi-mode microplate reader (BioTek). Assay was performed in triplicates, and the caspase activity of DMSO was considered as a base line.
The present inventors have shown that SV119 induces caspase-3 dependent apoptosis (Kashiwagi, H., el al. Mol Cancer 2007; 6:48). In these experiments, AsPC-1 cells were treated with 4 μM of SW V-49s. SV119, Erastin, and equimolar mixture of SV119 and Erastin for 24 hours. Using CASPASE-GLO® Assays, Caspase-3 level was measured to assess the activity of SW 119 domain of the SW V-49s compound and Caspase-8 and 9 levels were measured to identify which apoptotic pathway was involved.

KCKO cells = test: Viability assay (CELLTITER-GLO), 24 hours treatment; assay type: cell-based, murine
Procedure: as §1, §3

BxPC-3 = test: as above; assay type: cell-based, human
Procedure: as §1, §3

PANC-1 = test: as above; assay type: cell-based, human
Procedure: as §1, §3

MIA PaCa-2 = test: as above; assay type: cell-based, human
Procedure: as §1, §3

[1] = 24 hours treatment, SYO-1, ME1 deficient, FIG. 4F, read-out: IC50

## CCOc1ccccc1-n1c(C(C)N2CCN(C(=O)COc3ccc(Cl)cc3)CC2)nc2ccccc2c1=O (centres unmarked) [Erastin]
SYO-1; 40 μM, 24 hours, SYO-1 cells, FIG. 10
  death of cells: 84%
SYO-1; 24 h
  IC50: > 16 µM
AsPC-1; 40 μM, 24 hours, AsPC-1 cells, FIG. 10
  death of cells: 2%
AsPC-1; Homo sapiens, ASPC1, 24 h, read-out: IC50 ± SEM, AsPC-1
  IC50: > 150 µM
Caspase 3/7; AsPC-1 cells
  caspase activity compared to 4 μM SW V-49s: far less caspase activity
KCKO cells; Mus musculus, 24 h, read-out: IC50 ± SEM, KCKO
  IC50: > 150 µM
BxPC-3; Homo sapiens, BXPC-3, 24 h, read-out: IC50 ± SEM, BxPC-3
  IC50: > 150 µM
PANC-1; Homo sapiens, PANC-1, 24 h, read-out: IC50 ± SEM, PANC-1
  IC50: > 150 µM
MIA PaCa-2; Homo sapiens, MIA PaCa-2, 24 h, read-out: IC50 ± SEM, MiaPaCa-2
  IC50: > 150 µM

## COc1ccc(C)cc1NC(=O)OC1C[C@H]2CCC[C@@H](C1)N2CCCCCCN (some centres unmarked) [SV119, reference compound]
SYO-1; [1]
  IC50: 6.2 µM
AsPC-1; 24 hours, mean ± SEM, n ≥ 3, read-out: IC50 ± SEM, AsPC-1
  IC50: 111 ± 8.3 µM
Caspase 3/7; AsPC-1 cells
  caspase activity compared to 4 μM SW V-49s: far less caspase activity
KCKO cells; 24 hours, mean ± SEM, n ≥ 3, read-out: IC50 ± SEM, KCKO
  IC50: 68.7 ± 10.1 µM
BxPC-3; 24 hours, mean ± SEM, n ≥ 3, read-out: IC50 ± SEM, BxPC-3
  IC50: 54.2 ± 2.6 µM
PANC-1; 24 hours, mean ± SEM, n ≥ 3, read-out: IC50 ± SEM, PANC-1
  IC50: 111 ± 5.3 µM
MIA PaCa-2; 24 hours, mean ± SEM, n ≥ 3, read-out: IC50 ± SEM, MiaPaCa-2
  IC50: 94.5 ± 1.9 µM

## CCOc1ccccc1-n1c(CN2CCN(C(=O)COc3ccc(CNCCCCCCN4C5CCCC4CC(OC(=O)Nc4cc(C)ccc4OC)C5)cc3)CC2)nc2ccccc2c1=O.O=C(O)C(=O)O (centres unmarked) [SW V-49s]
SYO-1; [1]
  IC50: ~1 µM
AsPC-1; Homo sapiens, ASPC1, 24 h, read-out: IC50 concentration
  IC50: 3 µM
AsPC-1; Homo sapiens, ASPC1, 24 hours, mean ± SEM, n ≥ 3, read-out: IC50 ± SEM, AsPC-1
  IC50: 3.2 ± 0.3 µM
Caspase 3/7; 4 μM, 24 hours, AsPC-1, DMSO baseline, FIG. 12A
  caspase-3 fold above baseline: 3.4 fold
Caspase 3/7; 8 μM, 7 hrs, AsPC-1 cells, FIG. 5B
  increase in caspase 3/7 activity compared to all controls: approximately 3 fold
KCKO cells; Mus musculus, 24 h, read-out: IC50 concentration
  IC50: 2.2 µM
KCKO cells; Mus musculus, 24 hours, mean ± SEM, n ≥ 3, read-out: IC50 ± SEM, KCKO
  IC50: 2.4 ± 0.2 µM
BxPC-3; Homo sapiens, BXPC-3, 24 h, read-out: IC50 concentration
  IC50: 2.3 µM
BxPC-3; Homo sapiens, BXPC-3, 24 hours, mean ± SEM, n ≥ 3, read-out: IC50 ± SEM, BxPC-3
  IC50: 2.5 ± 0.1 µM
PANC-1; Homo sapiens, PANC-1, 24 h, read-out: IC50 concentration
  IC50: 4.3 µM
PANC-1; Homo sapiens, PANC-1, 24 hours, mean ± SEM, n ≥ 3, read-out: IC50 ± SEM, PANC-1
  IC50: 4.1 ± 0.2 µM
MIA PaCa-2; Homo sapiens, MIA PaCa-2, 24 h, read-out: IC50 concentration
  IC50: 2.3 µM
MIA PaCa-2; Homo sapiens, MIA PaCa-2, 24 hours, mean ± SEM, n ≥ 3, read-out: IC50 ± SEM, MiaPaCa-2
  IC50: 3 ± 0.3 µM
